# Results published in patent publication US20170065556A1, “ORAL FORMULATIONS OF PYRROLIDINE DERIVATIVES” (OBSEVA S.A., priority 2013, published 2017).
# What was measured:
# [1] = Qualitative solubility/crystallisation tests in solvents (15 mg scale); assay type: physicochemical
# [2] = female, human, in vivo, 20 h
# Method: Twelve healthy Caucasian women aged 54-62 years (mean 58.3 years), with a weight of 51 to 67 kg (mean 60.6 kg±5.1) and a body mass index ranging between 19.4-25.5 kg/m2 (mean 23.12 kg/m2±2.05) were enrolled. They were administered, on three separate treatment periods of one week, either two consecutive (3Z,5S) doses of 600 mg/day (administered to subjects using 3 dispersible tablets of 200 mg in 150 ml of water) or two intramuscular injections of 12 mg/day betamethasone or both drugs in combination.
# Therefore, pharmacokinetic parameters of the treatment with (3Z,5S) dispersible tablets were calculated for 12 subjects, whereas pharmacokinetic parameters of the combination treatment were assessed for 11 participants.
# During each treatment period of one week, blood samples were collected for the analysis of (3Z,5S) and betamethasone at time points 0 (pre-dose) and at 0.25, 0.5, 0.75, 1, 1.5, 2, 3, 4, 6, 8, 10, 12, 16, 20 and 24 hours after first dose on day 1. The plasma was prepared and stored below −20° C. All samples were analysed using validated LC-MS/MS methods. For the analysis of (3Z,5S), the lower limit of quantification was 1.0 ng/ml. For betamethasone analyses, the lower limit of quantification was 0.5 ng/ml.
# Pharmacokinetic parameters were estimated by non-compartmental methods using the Phoenix® WinNonLin® version 6.3 (Pharsight). […]
smiles,measurement,setting,value
"CO/N=C1/C[C@@H](CO)N(C(=O)c2ccc(-c3ccccc3C)cc2)C1 [(3Z,5S), (3Z,5S)-5-(hydroxymethyl)-1-[(2′-methyl-1,1′-biphenyl-4-yl)carbonyl]pyrrolidin-3-one-O-methyloxime]","Qualitative solubility, Dissolves in",[1]; solvent DIPE,40 vol hot
same,"Qualitative solubility, Dissolves in",[1]; solvent IPA,4 vol hot
same,"Qualitative solubility, Dissolves in",[1]; solvent MIBK,4 vol hot
same,"Qualitative solubility, Dissolves in",[1]; solvent THF,4 vol cold
same,"Qualitative solubility, Dissolves in / Comment",[1]; solvent heptanes,insoluble in 20 vol
same,"Qualitative solubility, Dissolves in",[1]; solvent tBuOH,6 vol hot
same,"Qualitative solubility, Dissolves in",[1]; solvent toluene,2 vol cold
same,% of Cmax,[2],25%
